According to US4283398A, “Cephalosporins” (Mitsui Toatsu Chemicals, Inc., priority 1978, dated 1981):
Where two headings read alike, the source gives them in different places.

Legend:
Assay in all cases: minimum growth inhibitory concentration (MIC) method
Type in all cases: cell-based
[1] = system: Proteus rettgeri (T-2); details: Providencia rettgeri, HIA medium, 37° C., 18 hours, sodium salts
Procedure: (§1) The antibacterial activities of the cephalosporins of this invention were measured using the sodium salts of the compounds obtained in Synthesis Examples 1 and 2. The procedure and the results are shown in Referential Example 1.
(§2) Carbenicillin sodium salt (CB-PC) and cephazoline sodium salt (CEZ) were used as controls.
(§3) The antibacterial activities of the test compounds against various Gram-positive and Gram-negative bacteria were determined in a customary manner by the minimum growth inhibitory concentration method (MIC method).
(§4) A commercially available heart infusion agar medium (to be abbreviated HIA medium) was used as an assay medium, and a commercially available trypto-soy bouillon medium (to be abbreviated TSB) was used as a medium for the growth of test bacterial strains.
(§5) The test compound was diluted with the melted HIA medium to 100 μg/ml as a maximum concentration, and then serially diluted double. The dilutions were poured into sterilized Petri dishes respectively and allowed to cool and solidify to prepare plates containing the test compound.
(§6) The test bacterial strain was cultivated at 37° C. for 18 to 24 hours in the TSB medium. The culture broth was diluted to 50 to 500 times with a freshly prepared TSB culture medium, and one platinum loopful of the dilution was inoculated in each of the plates containing the test compound. The plate was incubated at 37° C. for 18 hours, and the state of growth of the strain on the plate was observed, and the minimum growth inhibitory concentration (MIC) of the test compound was determined.

[2] = system: Proteus morganii (C-39); details: Morganella morganii, HIA medium, 37° C., 18 hours, sodium salts
Procedure: as §1, §2, §3, §4, §5, §6

[3] = system: Bacillus cereus (IAM 1792); details: IAM1792, HIA medium, 37° C., 18 hours, sodium salts
Procedure: as §1, §2, §3, §4, §5, §6

[4] = system: Pseudomonas Maltophilia (F-6257); details: Stenotrophomonas maltophilia, HIA medium, 37° C., 18 hours, sodium salts
Procedure: as §1, §2, §3, §4, §5, §6

[5] = system: Enterobacter cloacae (D-49); details: HIA medium, 37° C., 18 hours, sodium salts
Procedure: as §1, §2, §3, §4, §5, §6

[6] = system: Pseudomonas aeruginosa (S-1); details: P. aeruginosa S-1, HIA medium, 37° C., 18 hours, sodium salts
Procedure: as §1, §2, §3, §4, §5, §6

[7] = system: Staphylococcus aureus (Y-8); details: S. aureus Y-8, HIA medium, 37° C., 18 hours, sodium salts
Procedure: as §1, §2, §3, §4, §5, §6

[8] = system: Pseudomonas aeruginosa (IFO-3901); details: IFO3901, P. aeruginosa IFO-3901, HIA medium, 37° C., 18 hours, sodium salts
Procedure: as §1, §2, §3, §4, §5, §6

[9] = system: Streptococcus faecalis (Hoshi); details: Enterococcus faecalis, HIA medium, 37° C., 18 hours, sodium salts
Procedure: as §1, §2, §3, §4, §5, §6

[10] = system: Enterobacter aerogenes (IFO 3320); details: Klebsiella aerogenes, read-out: Minimum growth inhibitory concentration
Procedure: as §1, §2, §3, §4, §5, §6

[11] = system: Pseudomonas aeruginosa (F1629); details: P. aeruginosa F1629, HIA medium, 37° C., 18 hours, sodium salts
Procedure: as §1, §2, §3, §4, §5, §6

[12] = system: Escherichia coli (NIHJ); details: E. coli NIHJ, HIA medium, 37° C., 18 hours, sodium salts
Procedure: as §1, §2, §3, §4, §5, §6

[13] = system: Serratia marcescens (S-33); details: HIA medium, 37° C., 18 hours, sodium salts
Procedure: as §1, §2, §3, §4, §5, §6

[14] = system: Klebsiella pneumoniae (ATCC 10031); details: read-out: Minimum growth inhibitory concentration
Procedure: as §1, §2, §3, §4, §5, §6

[15] = system: Pseudomonas aeruginosa (718); details: P. aeruginosa 718, HIA medium, 37° C., 18 hours, sodium salts
Procedure: as §1, §2, §3, §4, §5, §6

[16] = system: Klebsiella pneumoniae (B-172); details: K. pneumoniae B-172, HIA medium, 37° C., 18 hours, sodium salts
Procedure: as §1, §2, §3, §4, §5, §6

[17] = system: Staphylococcus aureus (FDA 209P); details: FDA209P, read-out: Minimum growth inhibitory concentration
Procedure: as §1, §2, §3, §4, §5, §6

[18] = system: Shigella flexneri (K-A); details: HIA medium, 37° C., 18 hours, sodium salts
Procedure: as §1, §2, §3, §4, §5, §6

[19] = system: Salmonella enteritidis (KB-21); details: Salmonella enterica, read-out: Minimum growth inhibitory concentration
Procedure: as §1, §2, §3, §4, §5, §6

[20] = system: Proteus vulgaris (OX-19); details: read-out: Minimum growth inhibitory concentration
Procedure: as §1, §2, §3, §4, §5, §6

[21] = system: Escherichia coli (14H114); details: E. coli 14H114, HIA medium, 37° C., 18 hours, sodium salts
Procedure: as §1, §2, §3, §4, §5, §6

[22] = system: Escherichia coli (26R03); details: E. coli 26R03, HIA medium, 37° C., 18 hours, sodium salts
Procedure: as §1, §2, §3, §4, §5, §6

[23] = system: Pseudomonas aeruginosa (395); details: P. aeruginosa 395, HIA medium, 37° C., 18 hours, sodium salts
Procedure: as §1, §2, §3, §4, §5, §6

[24] = system: Citrobacter freundii (F-34); details: HIA medium, 37° C., 18 hours, sodium salts
Procedure: as §1, §2, §3, §4, §5, §6

[25] = system: Pseudomonas aeruginosa (NCTC 7244); details: NCTC7244, P. aeruginosa NCTC 7244, HIA medium, 37° C., 18 hours, sodium salts
Procedure: as §1, §2, §3, §4, §5, §6

[26] = system: Pseudomonas aeruginosa (ATCC 10145); details: ATCC10145, P. aeruginosa ATCC 10145, HIA medium, 37° C., 18 hours, sodium salts
Procedure: as §1, §2, §3, §4, §5, §6

[27] = system: Escherichia coli (K-12); details: E. coli K-12, HIA medium, 37° C., 18 hours, sodium salts
Procedure: as §1, §2, §3, §4, §5, §6

[28] = IFO3320, Enterobacter aerogenes IFO 3320, HIA medium, 37° C., 18 hours, sodium salts
[29] = ATCC10031, K. pneumoniae ATCC 10031, HIA medium, 37° C., 18 hours, sodium salts
[30] = S. aureus FDA 209P, HIA medium, 37° C., 18 hours, sodium salts
[31] = Salmonella enteritidis KB-21, HIA medium, 37° C., 18 hours, sodium salts
[32] = Proteus vulgaris OX-19, HIA medium, 37° C., 18 hours, sodium salts

SMILES: Cn1nnnc1SCC1=C(C(=O)O)N2C(=O)C(NC(=O)[C@H](NC(=O)c3cnc4c(c3O)C(=O)CCC4)c3ccccc3)C2SC1 (single isomer, unassigned) [Synthesis Example 1, 7-[D-(-)-α-(4-hydroxy-5-oxo-5,6,7,8-tetrahydroquinoline-3-carboxamide)phenylacetamido)-3-[[(1-methyl-1H-tetrazol-5-yl)thio]methyl]-Δ^3-cephem-4-carboxylic acid]
- MIC [1]: 1.56 µg/mL
- MIC [2]: 3.13 µg/mL
- MIC [3]: 25 µg/mL
- MIC [4]: 3.13 µg/mL
- MIC [5]: 6.25 µg/mL
- MIC [6]: 1.56 µg/mL
- MIC [7]: 3.13 µg/mL
- MIC [8]: 12.5 µg/mL
- MIC [9]: 25 µg/mL
- MIC [10, 28]: 0.2 µg/mL
- MIC [11]: 6.25 µg/mL
- MIC [12]: 0.78 µg/mL
- MIC [13]: 3.13 µg/mL
- MIC [14, 29]: 0.2 µg/mL
- MIC [15]: 12.5 µg/mL
- MIC [16]: 0.78 µg/mL
- MIC [17, 30]: 1.56 µg/mL
- MIC [18]: 0.2 µg/mL
- MIC [19, 31]: 0.78 µg/mL
- MIC [20, 32]: 1.56 µg/mL
- MIC [21]: 6.25 µg/mL
- MIC [22]: 1.56 µg/mL
- MIC [23]: 3.13 µg/mL
- MIC [24]: 0.78 µg/mL
- MIC [25]: 12.5 µg/mL
- MIC [26]: 12.5 µg/mL
- MIC [27]: 0.78 µg/mL

SMILES: Cn1nnnc1SCC1=C(C(=O)O)N2C(=O)C(NC(=O)[C@H](NC(=O)c3cnc4c(c3O)C(=O)CCC4)c3ccc(O)cc3)C2SC1 (single isomer, unassigned) [Synthesis Example 2, 7-[D-(-)-α-(4-hydroxy-5-oxo-5,6,7,8-tetrahydroquinoline-3-carboxamide)-α-(4-hydroxyphenyl)acetamido]-3-[[(1-methyl-1H-tetrazol-5-yl)thio]methyl]-Δ^3-cephem-4-carboxylic acid]
- MIC [1]: 1.56 µg/mL
- MIC [2]: 3.13 µg/mL
- MIC [3]: 12.5 µg/mL
- MIC [4]: 6.25 µg/mL
- MIC [5]: 3.13 µg/mL
- MIC [6]: 1.56 µg/mL
- MIC [7]: 3.13 µg/mL
- MIC [8]: 12.5 µg/mL
- MIC [9]: 25 µg/mL
- MIC [10, 28]: 0.2 µg/mL
- MIC [11]: 3.13 µg/mL
- MIC [12]: 0.78 µg/mL
- MIC [13]: 3.13 µg/mL
- MIC [14, 29]: 0.39 µg/mL
- MIC [15]: 12.5 µg/mL
- MIC [16]: 0.78 µg/mL
- MIC [17, 30]: 1.56 µg/mL
- MIC [18]: 0.1 µg/mL
- MIC [19, 31]: 0.39 µg/mL
- MIC [20, 32]: 0.78 µg/mL
- MIC [21]: 6.25 µg/mL
- MIC [22]: 0.78 µg/mL
- MIC [23]: 1.56 µg/mL
- MIC [24]: 0.39 µg/mL
- MIC [25]: 6.25 µg/mL
- MIC [26]: 12.5 µg/mL
- MIC [27]: 0.39 µg/mL

SMILES: Cc1nnc(SCC2=C(C(=O)O)N3C(=O)[C@@H](NC(=O)Cn4cnnn4)[C@H]3SC2)s1 [CEZ, sodium 7-[1-(1H)-tetrazoylacetamido]-3-[2-(5-methyl-1,3,4-thiadiazoyl)-thiomethyl]-Δ^3, cephem-4-carboxylate, reference compound]
- MIC [1]: 12.5 µg/mL
- MIC [2]: > 100 µg/mL
- MIC [3]: 100 µg/mL
- MIC [4]: > 100 µg/mL
- MIC [5]: > 100 µg/mL
- MIC [6]: > 100 µg/mL
- MIC [7]: 0.78 µg/mL
- MIC [8]: > 100 µg/mL
- MIC [9]: 25 µg/mL
- MIC [10, 28]: 3.13 µg/mL
- MIC [11]: > 100 µg/mL
- MIC [12]: 3.13 µg/mL
- MIC [13]: > 100 µg/mL
- MIC ([14]; ATCC10031, 18 h): 1.56 µg/mL
- MIC [15]: > 100 µg/mL
- MIC [16]: 3.13 µg/mL
- MIC [17, 30]: 0.2 µg/mL
- MIC [18]: 1.56 µg/mL
- MIC ([19]; ENTERITIDIS, 18 h): 1.56 µg/mL
- MIC ([20]; Proteus vulgaris, 18 h): 1.56 µg/mL
- MIC [21]: 6.25 µg/mL
- MIC [22]: 50 µg/mL
- MIC [23]: > 100 µg/mL
- MIC [24]: 50 µg/mL
- MIC [25]: > 100 µg/mL
- MIC [26]: > 100 µg/mL
- MIC [27]: 3.13 µg/mL

SMILES: CC1(C)S[C@@H]2[C@H](NC(=O)C(C(=O)O)c3ccccc3)C(=O)N2[C@H]1C(=O)O (stereo partly drawn) [CB-PC, disodium-α-carboxybenzyl penicillin, reference compound]
- MIC [1]: 3.13 µg/mL
- MIC [2]: 6.25 µg/mL
- MIC [3]: 100 µg/mL
- MIC [4]: 25 µg/mL
- MIC [5]: > 100 µg/mL
- MIC [6]: 25 µg/mL
- MIC [7]: 12.5 µg/mL
- MIC [8]: 100 µg/mL
- MIC [9]: 50 µg/mL
- MIC ([10]; IFO3320, 18 h): 1.56 µg/mL
- MIC [11]: > 100 µg/mL
- MIC [12]: 6.25 µg/mL
- MIC [13]: 6.25 µg/mL
- MIC [14, 29]: > 100 µg/mL
- MIC [15]: > 100 µg/mL
- MIC [16]: 25 µg/mL
- MIC ([17]; 18 h): 1.56 µg/mL
- MIC [18]: 1.56 µg/mL
- MIC ([19]; ENTERITIDIS, 18 h): 1.56 µg/mL
- MIC [20, 32]: 6.25 µg/mL
- MIC [21]: > 100 µg/mL
- MIC [22]: 3.13 µg/mL
- MIC [23]: 25 µg/mL
- MIC [24]: 3.13 µg/mL
- MIC [25]: 100 µg/mL
- MIC [26]: > 100 µg/mL
- MIC [27]: 6.25 µg/mL
